How the values were obtained:
[1] = intraperitoneally administered to mice; cited from earlier work
[2] = Direct intraperitoneal administration of carboplatin to mice; format: in vivo, mouse; conditions: same amount of carboplatin as contained in the cotton-like carrier
Description: On the other hand, the mice to which PBS was administered lived three weeks or more after administration, and were therefore euthanized in the fourth week after administration.

[3] = LD50 of carboplatin intraperitoneally administered to mice; format: in vivo; conditions: mouse having a body weight of 30 g

With `N.N.O=C([O-])C1(C(=O)[O-])CCC1.[Pt+2]` [carboplatin, cis-Diamine(1,1-cyclobutanedicarboxylato)platinum (II)] as the compound, how does the “LD50 (50% lethal dose)” value [1] read?
Its value is 150 mg/kg.

What about the “survival after direct intraperitoneal administration” value ([2]; healthy mice) of the same compound?
Its value is “all the mice died within several days”.

What about the “findings at dissection after direct intraperitoneal administration” value [2] of the same compound?
The value was “The intestines were necrosed and became dysfunctional”.

What about the LD50 per mouse [3] of the same compound?
The LD50 per mouse was 4.5 mg.
